Where “and” joins values, the source holds several entries; their conditions need not be identical. Equal entries are not always repeated. Inconclusive results and toxic doses are left out.
Tested on: L1210 leukemia ip in BDF1 mice, survival T/C
Experiment: NCI In Vivo Anticancer Drug Screen. Data for tumor model L1210 Leukemia (intraperitoneal) in B6D2F1 (BDF1) mice
Details: endpoint: mean survival time, higher = longer survival
Outline: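 Mice bearing the transplanted tumor received compound or vehicle. Survival of the treated group was divided by that of the vehicle-treated control group to give the ratio.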

[1] = dose: 100.0 mg/kg/injection, schedule: Q01DX009 (ip), vehicle: saline with Tween-80
[2] = dose: 100.0 mg/kg/injection, schedule: Q01DX001 (ip), vehicle: Klucel (hydroxypropylcellulose) (HPC)
[3] = dose: 100.0 mg/kg/injection, schedule: Q04DX003 (ip), vehicle: Klucel (hydroxypropylcellulose) (HPC)
[4] = dose: 200.0 mg/kg/injection, schedule: Q01DX001 (ip), vehicle: Klucel (hydroxypropylcellulose) (HPC)
[5] = dose: 400.0 mg/kg/injection, schedule: Q01DX001 (ip), vehicle: Klucel (hydroxypropylcellulose) (HPC)
[6] = dose: 400.0 mg/kg/injection, schedule: Q04DX003 (ip), vehicle: Klucel (hydroxypropylcellulose) (HPC)
[7] = dose: 200.0 mg/kg/injection, schedule: Q04DX003 (ip), vehicle: Klucel (hydroxypropylcellulose) (HPC)
[8] = dose: 100.0 mg/kg/injection, schedule: Q01DX009 (ip), vehicle: Klucel (hydroxypropylcellulose) (HPC)
[9] = dose: 200.0 mg/kg/injection, schedule: Q01DX009 (ip), vehicle: Klucel (hydroxypropylcellulose) (HPC)
[10] = dose: 400.0 mg/kg/injection, schedule: Q01DX009 (ip), vehicle: Klucel (hydroxypropylcellulose) (HPC)
[11] = dose: 100.0 mg/kg/injection, schedule: Q01DX001 (ip), vehicle: saline with Tween-80
[12] = dose: 200.0 mg/kg/injection, schedule: Q01DX001 (ip), vehicle: saline with Tween-80

For `NC(N)=N/N=C\c1ccc2c(c1)OCO2`, the T/C (dose: 15.0 mg/kg/injection, schedule: Q01DX Z (ip), vehicle: saline) was 98 % of control, the T/C (dose: 30.0 mg/kg/injection, schedule: Q01DX Z (ip), vehicle: saline) was 88 % of control and the T/C (dose: 30.0 mg/kg/injection, schedule: Q01DX Z (oral), vehicle: saline) was 92 % of control. For the same compound, the T/C (dose: 60.0 mg/kg/injection, schedule: Q01DX Z (ip), vehicle: saline) was 92 % of control, the T/C (dose: 60.0 mg/kg/injection, schedule: Q01DX Z (oral), vehicle: saline) was 94 % of control and the T/C (dose: 120.0 mg/kg/injection, schedule: Q01DX Z (oral), vehicle: saline) was 97 % of control.

`O=C1OC2C3C=CC(CC3)C2O1` (stereo not given) was tested, and the T/C (dose: 7.5 mg/kg/injection, schedule: Q04DX002 (ip), vehicle: Klucel (hydroxypropylcellulose) (HPC)) was 105 % of control, the T/C (dose: 15.0 mg/kg/injection, schedule: Q01DX001 (ip), vehicle: carboxymethylcellulose (CMC)) was 101 % of control and the T/C (dose: 15.0 mg/kg/injection, schedule: Q04DX002 (ip), vehicle: Klucel (hydroxypropylcellulose) (HPC)) was 99 % of control. For the same compound, the T/C (dose: 30.0 mg/kg/injection, schedule: Q01DX001 (ip), vehicle: carboxymethylcellulose (CMC)) was 114 % of control and the T/C (dose: 30.0 mg/kg/injection, schedule: Q04DX002 (ip), vehicle: Klucel (hydroxypropylcellulose) (HPC)) was 96 % of control.

For `Nc1cnccc1Nc1ccncc1`, the T/C (dose: 100.0 mg/kg/injection, schedule: Q04DX003 (ip), vehicle: saline with Tween-80) was 96 % of control and the T/C (dose: 200.0 mg/kg/injection, schedule: Q04DX003 (ip), vehicle: saline with Tween-80) was 96 % of control.

In the case of `CCN(CC)CC(N)=O`, the T/C (dose: 100.0 mg/kg/injection, schedule: Q04DX003 (ip), vehicle: saline) is reported as 103 % of control, the T/C (dose: 200.0 mg/kg/injection, schedule: Q04DX003 (ip), vehicle: saline) is reported as 103 % of control and the T/C (dose: 400.0 mg/kg/injection, schedule: Q04DX003 (ip), vehicle: saline) is reported as 111 % of control.

In the case of `CN1CCCCC1c1ccccc1` (stereo not given), the T/C (dose: 75.0 mg/kg/injection, schedule: Q01DX001 (ip), vehicle: saline) is reported as 103 % of control.

With `Cc1nccn1C(/C(=N/O)c1ccccc1)c1ccccc1` (stereo not given) the T/C [1] was 96 % of control, the T/C (dose: 200.0 mg/kg/injection, schedule: Q01DX009 (ip), vehicle: saline with Tween-80) was 96 % of control and the T/C (dose: 400.0 mg/kg/injection, schedule: Q01DX009 (ip), vehicle: saline with Tween-80) was 94 % of control.

With `NC(=O)c1cc(Cl)cc(Cl)c1Br` the T/C (dose: 100.0 mg/kg/injection, schedule: Q04DX003 (ip), vehicle: other) was 95 % of control and the T/C (dose: 200.0 mg/kg/injection, schedule: Q04DX003 (ip), vehicle: other) was 103 % of control.

`CCCCCCCCCCCCCCCCCCSC(C)(C)SCCCCCCCCCCCCCCCCCC` was tested, and the T/C (dose: 100.0 mg/kg/injection, schedule: Q04DX002 (ip), vehicle: saline with Tween-80) was 106 % of control, the T/C (dose: 200.0 mg/kg/injection, schedule: Q04DX002 (ip), vehicle: saline with Tween-80) was 89 % of control and the T/C (dose: 400.0 mg/kg/injection, schedule: Q04DX002 (ip), vehicle: saline with Tween-80) was 92 % of control.

In the case of `CC(=O)N(C(=O)c1ccccc1)c1ccc(NS(=O)(=O)c2ccc(C)cc2)cc1`, the T/C [2] is reported as 91 % of control, the T/C [3] is reported as 94 % of control and the T/C [4] is reported as 100 % of control. The T/C [5] was 100 % of control and the T/C [6] was 90 % of control.

`Cc1c(NC(=O)Nc2ccc(C3=NCCN3)cc2)cccc1NC(=O)Nc1ccc(C2=NCCN2)cc1` was tested, and the T/C (dose: 0.62 mg/kg/injection, schedule: Q01DX Z (ip), vehicle: carboxymethylcellulose (CMC)) was 92 % of control, the T/C (dose: 1.25 mg/kg/injection, schedule: Q01DX Z (ip), vehicle: carboxymethylcellulose (CMC)) was 98 % of control and the T/C (dose: 2.5 mg/kg/injection, schedule: Q01DX Z (ip), vehicle: carboxymethylcellulose (CMC)) was 102 % of control. For the same compound, the T/C (dose: 8.5 mg/kg/injection, schedule: Q01DX Z (oral), vehicle: carboxymethylcellulose (CMC)) was 109 % of control, the T/C (dose: 9.0 mg/kg/injection, schedule: Q01DX Z (ip), vehicle: water) was 205 % of control and the T/C (dose: 13.5 mg/kg/injection, schedule: Q01DX Z (oral), vehicle: carboxymethylcellulose (CMC)) was 121 % of control. The T/C (dose: 18.0 mg/kg/injection, schedule: Q01DX Z (ip), vehicle: water) was 160 % of control, the T/C (dose: 20.0 mg/kg/injection, schedule: Q01DX Z (oral), vehicle: carboxymethylcellulose (CMC)) was 111 % of control and the T/C (dose: 30.0 mg/kg/injection, schedule: Q01DX Z (oral), vehicle: carboxymethylcellulose (CMC)) was 109 % of control. For the same compound, the T/C (dose: 36.0 mg/kg/injection, schedule: Q01DX Z (ip), vehicle: water) was 111 % of control, the T/C (dose: 45.0 mg/kg/injection, schedule: Q01DX Z (oral), vehicle: carboxymethylcellulose (CMC)) was 114 % of control and the T/C (dose: 62.0 mg/kg/injection, schedule: Q01DX Z (ip), vehicle: saline) was 124 % of control. The T/C (dose: 125.0 mg/kg/injection, schedule: Q01DX Z (ip), vehicle: saline) was 96 % of control.

`Cc1ccc(CNC(=S)Nc2ccccc2)cc1` was tested, and the T/C (dose: 1.56 mg/kg/injection, schedule: Q01DX009 (ip), vehicle: Klucel (hydroxypropylcellulose) (HPC)) was 107 % of control, the T/C (dose: 3.12 mg/kg/injection, schedule: Q01DX009 (ip), vehicle: Klucel (hydroxypropylcellulose) (HPC)) was 104 % of control and the T/C (dose: 6.25 mg/kg/injection, schedule: Q01DX009 (ip), vehicle: Klucel (hydroxypropylcellulose) (HPC)) was 96 % of control and 100 % of control. For the same compound, the T/C [3] was 96 % of control, the T/C [7] was 96 % of control and the T/C [6] was 92 % of control.

`Cc1cnc2no[n+]([O-])c2c1` was tested, and the T/C [3] was 101 % of control and the T/C [7] was 102 % of control.

In the case of `CC(=O)OC1CCC2C3CCC4=C(Cl)C(=O)CCC4C3CCC12C` (stereo not given), the T/C (dose: 100.0 mg/kg/injection, schedule: Q01DX009 (sc), vehicle: steriod suspending solution) is reported as 103 % of control, the T/C (dose: 200.0 mg/kg/injection, schedule: Q01DX009 (sc), vehicle: steriod suspending solution) is reported as 102 % of control and the T/C (dose: 400.0 mg/kg/injection, schedule: Q01DX009 (sc), vehicle: steriod suspending solution) is reported as 100 % of control.

For `Nc1cnccc1N1CCN(c2ccc(Cl)c(Cl)c2)CC1`, the T/C (dose: 100.0 mg/kg/injection, schedule: Q01DX009 (ip), vehicle: gum acacia) was 95 % of control.

For `CCCN=Cc1ccccc1O.CCCN=Cc1ccccc1O.[Ni]`, the T/C (dose: 75.0 mg/kg/injection, schedule: Q01DX001 (ip), vehicle: other) was 95 % of control and the T/C (dose: 150.0 mg/kg/injection, schedule: Q01DX001 (ip), vehicle: other) was 108 % of control.

In the case of `CC(=N)c1ccc(C)cc1`, the T/C (dose: 6.25 mg/kg/injection, schedule: Q01DX009 (ip), vehicle: saline with Tween-80) is reported as 94 % of control, the T/C (dose: 12.5 mg/kg/injection, schedule: Q01DX009 (ip), vehicle: saline with Tween-80) is reported as 96 % of control and the T/C (dose: 25.0 mg/kg/injection, schedule: Q01DX009 (ip), vehicle: saline with Tween-80) is reported as 102 % of control.

`O=Cc1ccc(N(c2ccccc2)c2ccccc2)cc1` was tested, and the T/C [8] was 102 % of control, the T/C [3] was 96 % of control and the T/C [9] was 91 % of control. The T/C [7] was 100 % of control, the T/C [10] was 94 % of control and the T/C [6] was 94 % of control.

With `Cc1c(Cl)cccc1NC(=O)Sc1ccc(C(C)(C)C)cc1` the T/C [8] was 100 % of control, the T/C [9] was 90 % of control and the T/C [10] was 98 % of control.

In the case of `O=C(O)CC1CCC(NC(=O)NCCCl)CC1` (stereo not given), the T/C [11] is reported as 105 % of control and the T/C [12] is reported as 102 % of control.

In the case of `CC(=O)OC(C)(C)/N=N/C(C)(C)OC(C)=O`, the T/C [2] is reported as 94 % of control, the T/C [8] is reported as 101 % of control and the T/C [3] is reported as 108 % of control. For the same compound, the T/C [4] was 108 % of control, the T/C [9] was 101 % of control and the T/C [7] was 101 % of control. For the same compound, the T/C [5] was 103 % of control, the T/C [10] was 101 % of control and the T/C [6] was 103 % of control.

`O=C(COc1ccc(Cl)cc1Cl)Nc1ccc2ccccc2c1` was tested, and the T/C (dose: 100.0 mg/kg/injection, schedule: Q04DX002 (ip), vehicle: saline) was 95 % of control and 96 % of control, the T/C (dose: 200.0 mg/kg/injection, schedule: Q04DX002 (ip), vehicle: saline) was 103 % of control and the T/C (dose: 400.0 mg/kg/injection, schedule: Q04DX002 (ip), vehicle: saline) was 107 % of control and 92 % of control.

For `CCOC1(OCC)CS(=O)(=O)C1Cl` (stereo not given), the T/C (dose: 50.0 mg/kg/injection, schedule: Q01DX001 (ip), vehicle: saline with Tween-80) was 107 % of control, the T/C [11] was 98 % of control and the T/C [12] was 98 % of control.

`O=C/C=C/c1ccc([N+](=O)[O-])cc1` was tested, and the T/C (dose: 100.0 mg/kg/injection, schedule: Q01DX001 (ip), vehicle: saline) was 104 % of control, the T/C [1] was 98 % of control and the T/C (dose: 200.0 mg/kg/injection, schedule: Q01DX001 (ip), vehicle: saline) was 102 % of control. For the same compound, the T/C (dose: 400.0 mg/kg/injection, schedule: Q01DX001 (ip), vehicle: saline) was 102 % of control.

Reference: PubChem BioAssay AID248 (DTP/NCI, 2004)
